Reference: US20230096528A1, “Pharmaceutical Composition for Treatment or Prevention of Multiple Inflammatory disorders” (priority 2019, published 2023)

Columns and labels:
diet-induced (DIO) mice = test: Body weight study in diet-induced (DIO) mice (Example 9); type: in vivo, C57BL/6NTac mice
Protocol: This example provides results of a study of DA plus another compound (CQL) on body weight in diet-induced (DIO) mice. Adult C57BL/6NTac mice were fed with a high fat diet (60%). […] The study period was for 56 days+2-3 days testing period afterward. Body weight change measure 3× per week, food and water consumption on days 0, 12, 28, 42 and 56. Metabolic biomarkers were measured on days 28 and 56. Cytokine analysis on Days 28 and 56. Serum levels of GLP-1, GLP-2, and CCK at 1 h after dosing on Days 1 and 56, and at 2 h after dosing on Day 7 (dosing (>6 h fasting prior to dosing until after blood collection); and serum level of PPY on Day 56.

[1] = system: leptin-deficient (ob/ob) mice; test: Denatonium acetate on body weight in leptin-deficient (ob/ob) mice (Example 1); type: in vivo
Protocol: This example describes an in vivo study of denatonium acetate on body weight in leptin-deficient (ob/ob) mice. Adult leptin-deficient mice (homozygote, ob/ob mice) fed with high-fat diet. There was a vehicle control group (15 mice) that were treated with distilled water by gavage BID. […] Body weights and body weight changes were determined at days 1, 3, 7, 10, 14, 21, 24 and 28. Food intake was determined on days 3, 7, 10, 14, 17, 21, […] and 28. On day 28 blood samples were taken for cytokine analysis, HbA1c, HDL, LDL, insulin, and bile acids.

[2] = system: microbial populations in a nonalcoholic steatohepatitis (NASH) mouse model; test: Microbiome study in NASH mouse model on AMLN diet (Example 4); type: in vivo, C57BL/6 mice
From the text: There were changes in the microbiome in a mice model using a high-fat diet after 4 weeks of treatment with and without administering DA orally. The high fat diet itself induced extensive changes in the microbial populations in all groups. Importantly though, there was a pronounced difference between the DA treatment group and the control group at week 4.
Classifications of the different organisms that changed in the control and treatment groups at 4 weeks and observed extensive changes in the primary or dominant phylum groups of bacteria, as well as on a family and genus level were made. […] The diversity at 4 weeks dropped over the study course in both control and treatment group due to dietary impact.
The genetic potential of treatment-induced changes in relation to predicted physiological and metabolic pathways were aligned with observed benefits of treatment with DA with regards to attenuating inflammation and metabolic syndrome. The majority of the pathways being impacted were directly related to a decrease in inflammation and are known to be beneficial to cardiovascular health and other conditions related to the metabolic syndrome in humans. Observations included: • Increased metabolism of unsaturated fatty acids • Increased metabolism of arachidonic acid • Increased metabolism of cofactors and vitamins • Increased lysine degradation • Increased glycolysis and gluconeogenesis • Increased phosphatidylinositol signaling • Decreased arginine and ornithine metabolism Below Changes from Phylum à Family à Genus Level
The effect of a small molecule oral TAS2R agonist (DA) was investigated on microbial populations in a nonalcoholic steatohepatitis (NASH) mouse model. Two groups of 4-week-old male C57BL/6 mice (20/group) were fed Amylin Liver NASH (AMLN) diet and received daily doses of ARD-101 (30 mg/mL in water) or vehicle (water) via intragastric gavage. DNA was isolated from fecal samples collected at week 0 and 4, and microbial ecology was evaluated using bTEFAP (bacterial tag-encoded FLX amplicon pyrosequencing). Operational taxonomic units were classified using BLAST against a curated NCBI database. Diversity within specific ecosystems and microbial community structures was analyzed with Qiime 2. Differences were determined by repeated measures ANOVA and post hoc pairwise comparisons using Tukey's test. Taxonomic classification data were evaluated with a dual hierarchal dendrogram.

[3] = DA 92.4 mg/kg gavage BID, vs vehicle
[4] = DA 92.4 mg/kg gavage BID, vs vehicle, no significant difference
[5] = gavage BID (DA 92.4 mg/kg, CQL 50 mg/kg)
[6] = 23.1 mg/kg BID gavage, vs vehicle
[7] = 23.1 mg/kg BID gavage, vs vehicle, no statistically significant difference
[8] = AMLN diet mice, daily gavage, week 4, DA vs vehicle
[9] = treatment at 4 weeks versus baseline and control

With `CC(=O)[O-].CC[N+](CC)(CC(=O)Nc1c(C)cccc1C)Cc1ccccc1` [DA, denatonium acetate] the Serum glucose levels (diet-induced (DIO) mice; DA 92.4 mg/kg gavage BID) was “did not show a significant effect”, the “Serum GLP-1 levels at Day 56” value (diet-induced (DIO) mice; DA 92.4 mg/kg gavage BID, 1 h after dosing, vs vehicle) was “significantly increased” and the “Serum GLP-1 levels at Day 7” value (diet-induced (DIO) mice; DA 92.4 mg/kg gavage BID, 2 h after dosing, vs vehicle) was “significantly increased”. The “Body weight gain at day 57” value (diet-induced (DIO) mice; DA 92.4 mg/kg gavage BID, compared to vehicle and CQL) was “significantly reduced”, the “Serum CCK levels at Day 56” value (diet-induced (DIO) mice; [3]) was “significantly increased” and the “Serum GLP-2 levels at Day 56” value (diet-induced (DIO) mice; [3]) was “significantly increased”. For the same compound, the “Serum PYY levels at Day 56” value (diet-induced (DIO) mice; [3]) was “significantly increased”, the “Serum insulin level at Day 28” value (diet-induced (DIO) mice; [3]) was “significantly reduced” and the “Serum LDL levels at day 28” value (diet-induced (DIO) mice; [4]) was “noticeable decrease”. The “Serum LDL levels at day 56” value (diet-induced (DIO) mice; [4]) was “noticeable decrease”, the “Serum HbA1c level at Day 28” value (diet-induced (DIO) mice; [5]) was “significantly reduced” and the “Serum HbA1c level at Day 56” value (diet-induced (DIO) mice; [5]) was “considerably increased”. For the same compound, the “Daily water intake at Day 28” value (diet-induced (DIO) mice; gavage BID (DA 92.4 mg/kg, CQL 50 mg/kg), vs vehicle) was “significantly increased”, the “Blood HDL level at day 28” value [1, 6] was “statistically significant decrease” and the “Blood HbA1c levels at day 28” value [1, 6] was “no statistically significant difference”. The “Blood LDL cholesterol levels at day 28” value [1, 6] was “no statistically significant difference”, the “Blood bile acid levels at day 28” value [1, 6] was “no statistically significant difference” and the “Blood insulin levels at day 28” value [1, 6] was “no statistically significant difference”. For the same compound, the “Blood total cholesterol level (LDL plus HDL) at day 28” value [1, 6] was “almost significant decrease”, the “Body weight change at day 28” value [1, 6] was “no statistically significant difference” and the “Cumulative food consumption over 28 days” value [1, 6] was “no statistically significant difference”. The “Fasting blood glucose level at day 28” value [1, 6] was “no statistically significant difference”, the “GM-CSF in blood at day 28” value [1, 6] was “significant decreases” and the “IFNγ in blood at day 28” value [1, 6] was “significant decreases”. The “IL-5 in blood at day 28” value [1, 6] was “significant decreases”, the “IL-10 in blood at day 28” value [1, 6] was “significant decreases” and the “IL-12 in blood at day 28” value [1, 6] was “significant decreases”. For the same compound, the “KC/CXCL1 in blood at day 28” value [1, 6] was “significant decreases”, the “M-CSF in blood at day 28” value [1, 6] was “significant decreases” and the “Change in granulocyte number, pre-dose to day 28” value [1, 7] was “trend of increasing change”. The “Change in lymphocyte and white blood cell numbers and percentage, pre-dose to day 28” value [1, 7] was “trend of increasing change”, the “Change in monocyte number and percentage, pre-dose to day 28” value [1, 7] was “trend of increasing change” and the “Average daily individual food intake” value ([1]; 28 days, DA vs vehicle) was “no difference”. The “Body weight after treatment for 28 days” value ([1]; compared to vehicle-treated controls) was “noticeable body weight decrease”, the “Microbiome pathways for biosynthesis of unsaturated fatty acids” value ([2]; 4-week DA treatment) was “significant enrichment” and the “Microbiome pathways for glycolysis and gluconeogenesis” value ([2]; 4-week DA treatment) was “significant enrichment”. The “Microbiome pathways for lysine degradation” value ([2]; 4-week DA treatment) was “significant enrichment”, the “Microbiome pathways for metabolism of arachidonic acid” value ([2]; 4-week DA treatment) was “significant enrichment” and the “Microbiome pathways for metabolism of cofactors and vitamins” value ([2]; 4-week DA treatment) was “significant enrichment”. For the same compound, the Microbiome phosphatidylinositol signaling ([2]; 4-week DA treatment) was “significant enrichment”, the “Microbiome signaling for arginine and ornithine metabolism” value ([2]; 4-week DA treatment) was “significantly decreased” and the SCFAs in feces ([2]; AMLN diet mice, DA treatment) was “mitigated the diet-induced decrease”. For the same compound, the “Proteobacteria (phylum) in fecal microbiome” value ([2]; AMLN diet mice, daily gavage (30 mg/mL in water), week 4, DA vs vehicle) was “significant increases”, the “Cyanobacteria (phylum) in fecal microbiome” value [2, 8] was “significant increases” and the “Deferribacteres (phylum) in fecal microbiome” value [2, 8] was “significant decreases”. For the same compound, the “Firmicutes (phylum) in fecal microbiome” value [2, 8] was “significant decreases”, the “Spirochetes (phylum) in fecal microbiome” value [2, 8] was “significant decreases” and the “Verrucomicrobia (phylum) in fecal microbiome” value [2, 8] was “significant increases”. The “Diversity within ecosystems and microbial communities” value ([2]; DA versus vehicle group at week 4, p<0.05) was “significantly less diversity”, the “Barnesiella (genus) in microbiome” value [2, 9] was “Significantly Decreased” and the “Brenneria (genus) in microbiome” value [2, 9] was “Significantly Increased”. For the same compound, the “Candidatus soleaferrea (genus) in microbiome” value [2, 9] was “Significantly Decreased”, the “Clostridium (genus) in microbiome” value [2, 9] was “Significantly Decreased” and the “Dehalobacterium (genus) in microbiome” value [2, 9] was “Significantly Decreased”. For the same compound, the “Dorea (genus) in microbiome” value [2, 9] was “Significantly Decreased”, the “Erysipelatoclostridium (genus) in microbiome” value [2, 9] was “Significantly Increased” and the “Escherichia (genus) in microbiome” value [2, 9] was “Significantly Increased”. For the same compound, the “Flavonifractor (genus) in microbiome” value [2, 9] was “Significantly Decreased”, the “Lachnoclostridium (genus) in microbiome” value [2, 9] was “Significantly Decreased” and the “Oscillibacter (genus) in microbiome” value [2, 9] was “Significantly Decreased”. For the same compound, the “Oscillospira (genus) in microbiome” value [2, 9] was “Significantly Decreased”, the “Parabacteroides (genus) in microbiome” value [2, 9] was “Significantly Increased” and the “Peptoclostridium (genus) in microbiome” value [2, 9] was “Significantly Increased”. For the same compound, the “Shigella (genus) in microbiome” value [2, 9] was “Significantly Increased”, the “Sutterella (genus) in microbiome” value [2, 9] was “Significantly Increased” and the “Bacteroidetes (phylum) in microbiome” value ([2]; week 4, not marked as significant) was “decreased”.
